± gives the expanded uncertainty stated by the source.
How the values were obtained:
[1] = for surface tension liquid-gas: Drop volume; for viscosity / mass density: 100 kPa, Liquid; for viscosity: Concentric cylinders viscometry; for mass density: Vibrating tube method
[2] = refractive index (Na D-line) (dimensionless); details: 100 kPa, Liquid
[3] = refractive index (Na D-line) (dimensionless); xn = mol fraction of the nth substance listed; details: 100 kPa, Liquid, x2 = 0
[4] = xn = mol fraction of the nth substance listed; details: x2 = 0; for surface tension liquid-gas: Drop volume; for viscosity / mass density: 100 kPa, Liquid; for viscosity: Concentric cylinders viscometry; for mass density: Vibrating tube method

CC(C)CC(C)(C)C [2,2,4-trimethylpentane]
Details | mass density, [1] [kg/m3] | refractive index, [2] | surface tension liquid-gas, [1] [mN/m] | viscosity, [1] [mPa·s]
293.15 K | 691.91 ± 0.19 | 1.3921 ± 0.0015 | 18.94 ± 0.24 | 0.518 ± 0.083
298.15 K | 687.82 ± 0.19 | 1.3886 ± 0.0015 | 18.39 ± 0.24 | 0.493 ± 0.079
303.15 K | 683.68 ± 0.19 | 1.3876 ± 0.0015 | 17.99 ± 0.24 | 0.47 ± 0.075
308.15 K | 679.51 ± 0.19 | 1.3848 ± 0.0015 | 17.58 ± 0.23 | 0.449 ± 0.072
313.15 K | 675.32 ± 0.19 | 1.3833 ± 0.0015 | – | 0.43 ± 0.069
318.15 K | 671.05 ± 0.19 | 1.3785 ± 0.0015 | – | 0.414 ± 0.066
323.15 K | 666.8 ± 0.2 | 1.376 ± 0.0015 | – | 0.398 ± 0.064
333.15 K | 658.2 ± 0.2 | – | – | 0.371 ± 0.06
343.15 K | 649.44 ± 0.2 | – | – | 0.348 ± 0.056

CCC1CCCCC1 [ethylcyclohexane]
Details | mass density, [1] [kg/m3] | refractive index, [2] | surface tension liquid-gas, [1] [mN/m] | viscosity, [1] [mPa·s]
293.15 K | 787.98 ± 0.15 | 1.4337 ± 0.0015 | 25.47 ± 0.24 | 0.848 ± 0.14
298.15 K | 783.97 ± 0.15 | 1.4301 ± 0.0015 | 24.76 ± 0.24 | 0.793 ± 0.13
303.15 K | 779.93 ± 0.15 | 1.4295 ± 0.0015 | 24.55 ± 0.24 | 0.745 ± 0.12
308.15 K | 775.88 ± 0.15 | 1.4278 ± 0.0015 | 23.74 ± 0.24 | 0.702 ± 0.11
313.15 K | 771.82 ± 0.15 | 1.4259 ± 0.0015 | – | 0.663 ± 0.11
318.15 K | 767.69 ± 0.15 | 1.4204 ± 0.0015 | – | 0.628 ± 0.1
323.15 K | 763.59 ± 0.15 | 1.4187 ± 0.0015 | – | 0.597 ± 0.096
333.15 K | 755.35 ± 0.15 | – | – | 0.541 ± 0.087
343.15 K | 747.03 ± 0.16 | – | – | 0.496 ± 0.08

CC1CCCCC1 [methylcyclohexane]
Details | mass density, [1] [kg/m3] | refractive index, [2] | surface tension liquid-gas, [1] [mN/m] | viscosity, [1] [mPa·s]
293.15 K | 769.35 ± 0.15 | 1.4232 ± 0.0015 | 23.87 ± 0.24 | 0.735 ± 0.12
298.15 K | 765.05 ± 0.15 | 1.4199 ± 0.0015 | 23.02 ± 0.24 | 0.692 ± 0.11
303.15 K | 760.71 ± 0.15 | 1.419 ± 0.0015 | 22.55 ± 0.24 | 0.651 ± 0.1
308.15 K | 756.37 ± 0.15 | 1.4168 ± 0.0015 | 22.12 ± 0.24 | 0.615 ± 0.099
313.15 K | 752 ± 0.16 | 1.415 ± 0.0015 | – | 0.58 ± 0.093
318.15 K | 747.58 ± 0.16 | 1.4102 ± 0.0015 | – | 0.549 ± 0.088
323.15 K | 743.17 ± 0.16 | 1.4078 ± 0.0015 | – | 0.522 ± 0.084
333.15 K | 734.29 ± 0.16 | – | – | 0.476 ± 0.076
343.15 K | 725.31 ± 0.16 | – | – | 0.439 ± 0.07

CC(C)CC(C)(C)C [2,2,4-trimethylpentane] + CC1CCCCC1
Details | mass density, [4] [kg/m3] | refractive index, [3] | surface tension liquid-gas, [4] [mN/m] | viscosity, [4] [mPa·s]
293.15 K | 691.91 ± 0.19 | 1.3921 ± 0.0015 | 18.94 ± 0.24 | 0.518 ± 0.083
298.15 K | 687.82 ± 0.19 | 1.3886 ± 0.0015 | 18.39 ± 0.24 | 0.493 ± 0.079
303.15 K | 683.68 ± 0.19 | 1.3876 ± 0.0015 | 17.99 ± 0.24 | 0.47 ± 0.075
308.15 K | 679.51 ± 0.19 | 1.3848 ± 0.0015 | 17.58 ± 0.23 | 0.449 ± 0.072
313.15 K | 675.32 ± 0.19 | 1.3833 ± 0.0015 | – | 0.43 ± 0.069
318.15 K | 671.05 ± 0.19 | 1.3785 ± 0.0015 | – | 0.414 ± 0.066
323.15 K | 666.8 ± 0.2 | 1.376 ± 0.0015 | – | 0.398 ± 0.064
333.15 K | 658.2 ± 0.2 | – | – | 0.371 ± 0.06
343.15 K | 649.44 ± 0.2 | – | – | 0.348 ± 0.056

CC(C)CC(C)(C)C [2,2,4-trimethylpentane] + CCCCC1CCCCC1
Details | mass density, [4] [kg/m3] | refractive index, [3] | surface tension liquid-gas, [4] [mN/m] | viscosity, [4] [mPa·s]
293.15 K | 691.91 ± 0.19 | 1.3921 ± 0.0015 | 18.94 ± 0.24 | 0.518 ± 0.083
298.15 K | 687.82 ± 0.19 | 1.3886 ± 0.0015 | 18.39 ± 0.24 | 0.493 ± 0.079
303.15 K | 683.68 ± 0.19 | 1.3876 ± 0.0015 | 17.99 ± 0.24 | 0.47 ± 0.075
308.15 K | 679.51 ± 0.19 | 1.3848 ± 0.0015 | 17.58 ± 0.23 | 0.449 ± 0.072
313.15 K | 675.32 ± 0.19 | 1.3833 ± 0.0015 | – | 0.43 ± 0.069
318.15 K | 671.05 ± 0.19 | 1.3785 ± 0.0015 | – | 0.414 ± 0.066
323.15 K | 666.8 ± 0.2 | 1.376 ± 0.0015 | – | 0.398 ± 0.064
333.15 K | 658.2 ± 0.2 | – | – | 0.371 ± 0.06
343.15 K | 649.44 ± 0.2 | – | – | 0.348 ± 0.056

CC(C)CC(C)(C)C [2,2,4-trimethylpentane] + CCC1CCCCC1
Details | mass density, [4] [kg/m3] | refractive index, [3] | surface tension liquid-gas, [4] [mN/m] | viscosity, [4] [mPa·s]
293.15 K | 691.91 ± 0.19 | 1.3921 ± 0.0015 | 18.94 ± 0.24 | 0.518 ± 0.083
298.15 K | 687.82 ± 0.19 | 1.3886 ± 0.0015 | 18.39 ± 0.24 | 0.493 ± 0.079
303.15 K | 683.68 ± 0.19 | 1.3876 ± 0.0015 | 17.99 ± 0.24 | 0.47 ± 0.075
308.15 K | 679.51 ± 0.19 | 1.3848 ± 0.0015 | 17.58 ± 0.23 | 0.449 ± 0.072
313.15 K | 675.32 ± 0.19 | 1.3833 ± 0.0015 | – | 0.43 ± 0.069
318.15 K | 671.05 ± 0.19 | 1.3785 ± 0.0015 | – | 0.414 ± 0.066
323.15 K | 666.8 ± 0.2 | 1.376 ± 0.0015 | – | 0.398 ± 0.064
333.15 K | 658.2 ± 0.2 | – | – | 0.371 ± 0.06
343.15 K | 649.44 ± 0.2 | – | – | 0.348 ± 0.056

CCCCC1CCCCC1 [butylcyclohexane]
Details | mass density, [1] [kg/m3] | refractive index, [2] | surface tension liquid-gas, [1] [mN/m] | viscosity, [1] [mPa·s]
293.15 K | 799.37 ± 0.15 | 1.4403 ± 0.0015 | 26.81 ± 0.25 | 1.304 ± 0.21
298.15 K | 795.63 ± 0.15 | 1.4377 ± 0.0015 | 25.87 ± 0.24 | 1.199 ± 0.19
303.15 K | 791.88 ± 0.15 | 1.4355 ± 0.0015 | 25.49 ± 0.24 | 1.109 ± 0.18
308.15 K | 788.12 ± 0.15 | 1.4333 ± 0.0015 | 24.73 ± 0.24 | 1.031 ± 0.17
313.15 K | 784.35 ± 0.15 | 1.4314 ± 0.0015 | – | 0.961 ± 0.15
318.15 K | 780.49 ± 0.15 | 1.429 ± 0.0015 | – | 0.9 ± 0.14
323.15 K | 776.7 ± 0.16 | 1.4268 ± 0.0015 | – | 0.844 ± 0.14
333.15 K | 769.09 ± 0.16 | – | – | 0.749 ± 0.12
343.15 K | 761.43 ± 0.16 | – | – | 0.671 ± 0.11
